Results taken from US10821115B2, “Compounds that inhibit Mcl-1 protein” (priority 2017, dated 2020).
Like-named read-outs stand apart in the source and are kept apart here.

What was measured:
[1] = target: recombinant human Mcl-1 (residues 171-327) / Bim interaction (Homo sapiens (Human), UniProt Q07820); test: biochemical; assay type: binding; conditions: read-out: Mcl-1 HTRF IC50
[2] = test system: human multiple myeloma cell line, OPM-2; test: Cell viability assay (OPM-2 10 FBS), CellTiter-Glo; assay type: cell-based
Outline: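 Steps: plate cells at 3000/well in 10% FBS growth medium, add serially diluted compound, incubate 16 h at 37 °C with 5% CO2, add detection reagent and read luminescence after 25 min. A 4-parameter logistic model gives IC50.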

[3] = TR-FRET, Mcl-1(171-327) / biotin-Bim (51-76)
[4] = Homo sapiens, OPM-2, 16 h, read-out: OPM-2 10% FBS IC50 IP, OPM-2 cells, 10% FBS, 16 h, CellTiter-Glo
[5] = 0.1 nM Mcl-1(171-327), 0.05 nM biotin-Bim (51-76)
[6] = read-out: OPM-2 10% FBS IC50 IP, OPM-2 cells, 10% FBS, 16 h incubation
[7] = Homo sapiens, OPM-2, 16 h, read-out: OPM-2 10% FBS IC50 IP, OPM-2 cells, 10% FBS, 16 h incubation
[8] = read-out: OPM-2 10% FBS IC50 IP, OPM-2 cells, 10% FBS, 16 h, CellTiter-Glo

recombinant human Mcl-1 (residues 171-327) / Bim interaction, sequence (Q07820 171-327): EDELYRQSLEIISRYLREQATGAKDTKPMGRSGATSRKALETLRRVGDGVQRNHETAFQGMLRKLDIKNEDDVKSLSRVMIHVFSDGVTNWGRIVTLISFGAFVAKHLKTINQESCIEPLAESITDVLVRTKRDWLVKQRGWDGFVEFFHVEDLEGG

| Structure (SMILES) | IC50 [1, 3] | IC50 [2, 4] | IC50 [1, 5] | other results |
| --- | --- | --- | --- | --- |
| C[C@@H]1[C@@H](C)CCCC(CO)(CO)[C@@H]2CC[C@H]2CN2C[C@@]3(CCCc4cc(Cl)ccc43)COc3ccc(cc32)C(=O)NS1(=O)=O [Example 100342, (1S,3′R,6′R,11′S,12′R)-6-chloro-7′,7′-bis(hydroxymethyl)-11′,12′-dimethyl-3,4-dihydro-2H,15′H-spiro[naphthalene-1,22′-[20]oxa[13]thia[1,14]diazatetracyclo [14.7.2.0~3,6~.0~19,24~]pentacosa[16,18,24]trien]-15′-one 13′,13′-dioxide] | 1.69 nM | 782 nM | – | – |
| C[C@@H]1[C@@H](C)C/C=C/[C@@](O)(CC(=O)N2CCN3CCOC[C@@H]3C2)[C@@H]2CC[C@H]2CN2C[C@@]3(CCCc4cc(Cl)ccc43)COc3ccc(cc32)C(=O)NS1(=O)=O [Example 100305, (1S,3′R,6′R,7′S,8′E,11′S,12′R)-6-chloro-7′-(2-((9aS)-hexahydropyrazino[2,1-c][1,4]oxazin-8(1H)-yl)-2-oxoethyl)-7′-hydroxy-11′,12′-dimethyl-3,4-dihydro-2H,15′H-spiro[naphthalene-1,22′-[20]oxa[13]thia[1,14]diazatetracyclo [14.7.2.0~3,6~.0~19,24~]pentacosa[8,16,18,24]tetraen]-15′-one 13′,13′-dioxide] | 0.473 nM | 1140 nM | – | – |
| CO[C@@]1(CN2CCN3CC[C@H](F)C[C@@H]3C2)/C=C/C[C@H](C)[C@@H](C)S(=O)(=O)NC(=O)c2ccc3c(c2)N(C[C@@H]2CC[C@H]21)C[C@@]1(CCCc2cc(Cl)ccc21)CO3 (single isomer, unassigned) [Example 284] | – | – | 0.288 nM | IC50 [2, 6]: 230 nM |
| CO[C@@]1(CN2CCN(c3ccc(B(O)O)c(C(C)=O)c3)CC2)/C=C/C[C@H](C)[C@@H](C)S(=O)(=O)NC(=O)c2ccc3c(c2)N(C[C@@H]2CC[C@H]21)C[C@@]1(CCCc2cc(Cl)ccc21)CO3 [Example 296, (2-acetyl-4-(4-(((1S,3′R,6′R,7′S,8′E,11′S, 12′R)-6-chloro-7′-methoxy-11′,12′-dimethyl-13′,13′-dioxido-15′-oxo-3,4-dihydro-2H-spiro[naphthalene-1,22′-[20]oxa[13]thia[1,14]diazatetracyclo [14.7.2.0~3,6~.0~19,24~]pentacosa[8,16,18,24]tetraen]-7′-yl)methyl)-1-piperazinyl)phenyl)boronic acid] | – | – | 0.211 nM | IC50 [2, 7]: 1310 nM |
| CCN1[C@H](C)CN(C[C@@]2(OC)/C=C/C[C@H](C)[C@@H](C)S(=O)(=O)NC(=O)c3ccc4c(c3)N(C[C@@H]3CC[C@H]32)C[C@@]2(CCCc3cc(Cl)ccc32)CO4)C[C@@H]1C [Example 341, (1S,3′R,6′R,7′R,8′E,11′S,12′R)-6-chloro-7′-(((3R,5S)-4-ethyl-3,5-dimethyl-1-piperazinyl)methyl)-7′-methoxy-11′,12′-dimethyl-3,4-dihydro-2H,15′H-spiro[naphthalene-1,22′-[20]oxa[13]thia[1,14]diazatetracyclo [14.7.2.0~3,6~.0~19,24~]pentacosa[8,16,18,24]tetraen]-15′-one 13′,13′-dioxide] | – | – | 0.052 nM | IC50 [2, 7]: 42 nM |
| CO[C@@]1(CN2CCC3(CCOCC3)CC2)/C=C/C[C@H](C)[C@@H](C)S(=O)(=O)NC(=O)c2ccc3c(c2)N(C[C@@H]2CC[C@H]21)C[C@@]1(CCCc2cc(Cl)ccc21)CO3 [Example 264, (1S,3′R,6′R,7′S,8′E,11′S,12′R)-6-chloro-7′-methoxy-11′,12′-dimethyl-7′-(3-oxa-9-azaspiro[5.5]undec-9-ylmethyl)-3,4-dihydro-2H,15′H-spiro[naphthalene-1,22′-[20]oxa[13]thia[1,14]diazatetracyclo [14.7.2.0~3,6~.0~19,24~]pentacosa[8,16,18,24]tetraen]-15′-one 13′,13′-dioxide] | – | – | 0.396 nM | IC50 [2, 7]: 771 nM |
| C[C@@H]1[C@@H](C)C/C=C/[C@@](O)(CC(=O)N2CCOCC2)[C@@H]2CC[C@H]2CN2C[C@@]3(CCCc4cc(Cl)ccc43)COc3ccc(cc32)C(=O)NS1(=O)=O [Example 100085, (1S,3′R,6′R,7′S,8′E,11′S,12′R)-6-chloro-7′-hydroxy-11′,12′-dimethyl-7′-(2-(4-morpholinyl)-2-oxoethyl)-3,4-dihydro-2H,15′H-spiro[naphthalene-1,22′-[20]oxa[13]thia[1,14]diazatetracyclo [14.7.2.0~3,6~.0~19,24~]pentacosa[8,16,18,24]tetraen]-15′-one 13′,13′-dioxide] | – | 288 nM | – | IC50 [1]: 0.245 nM |
| COCCN(C)C1=NO[C@@]2(CCC[C@H](C)[C@@H](C)S(=O)(=O)NC(=O)c3ccc4c(c3)N(C[C@@H]3CC[C@H]32)C[C@@]2(CCCc3cc(Cl)ccc32)CO4)C1 [Example 100155, (1S,3′R,6′R,7′S,11′S,12′R)-6-chloro-3″- ((2-methoxyethyl)(methyl)amino)-11′,12′-dimethyl-3,4-dihydro-2H,4″H,15′H-dispiro[naphthalene-1,22′-[20]oxa[13]thia[1,14]diazatetracyclo [14.7.2.0~3,6~.0~19,24~]pentacosa[16,18,24]triene-7′,5″-[1,2]oxazol]-15′-one 13′,13′-dioxide] | 0.225 nM | 332 nM | – | – |
| C[C@@H]1[C@@H](C)C/C=C/[C@@](O)(C=O)[C@@H]2CC[C@H]2CN2C[C@@]3(CCCc4cc(Cl)ccc43)COc3ccc(cc32)C(=O)NS1(=O)=O [Example 100291, (1S,3′R,6′R,7′S,8′E,11′S,12′R)-6-chloro-7′-hydroxy-11′,12′-dimethyl-15′-oxo-3,4-dihydro-2H-spiro[naphthalene-1,22′-[20]oxa[13]thia[1,14]diazatetracyclo [14.7.2.0~3,6~.0~19,24~]pentacosa[8,16,18,24]tetraene]-7′-carbaldehyde 13′,13′-dioxide] | 0.137 nM | 281 nM | – | – |
| COC[C@@H]1[C@@H](C)C/C=C/[C@](CN2CCN3CCCC[C@@H]3C2)(OC)[C@@H]2CC[C@H]2CN2C[C@@]3(CCCc4cc(Cl)ccc43)COc3ccc(cc32)C(=O)NS1(=O)=O [Example 169] | – | – | 0.14 nM | IC50 [2, 7]: 74 nM |
| CO[C@@]1(CN2CCN3CCOC[C@@H]3C2)/C=C/C[C@H](C)[C@@H](Cc2ccccc2)S(=O)(=O)NC(=O)c2ccc3c(c2)N(C[C@@H]2CC[C@H]21)C[C@@]1(CCCc2cc(Cl)ccc21)CO3 (single isomer, unassigned) [Example 102] | – | – | 0.182 nM | IC50 [2, 6]: 416 nM |
| C[C@@H]1[C@@H](C)C/C=C/[C@@](O)(c2ccncn2)[C@@H]2CC[C@H]2CN2C[C@@]3(CCCc4cc(Cl)ccc43)COc3ccc(cc32)C(=O)NS1(=O)=O (single isomer, unassigned) [Example 100360] | 0.848 nM | 1230 nM | – | – |
| CO[C@H](C)[C@]1(OC)/C=C/C[C@H](C)[C@@H](C)S(=O)(=O)NC(=O)c2ccc3c(c2)N(C[C@@H]2CC[C@H]21)C[C@@]1(CCCc2cc(Cl)ccc21)CO3 [Example 100475, (1S,3′R,6′R,7′S,8′E,11′S,12′R)-6-chloro-7′-methoxy-7′-((1R)-1-methoxyethyl)-11′,12′-dimethyl-3,4-dihydro-2H,15′H-spiro[naphthalene-1,22′-[20]oxa[13]thia[1,14]diazatetracyclo [14.7.2.0~3,6~.0~19,24~]pentacosa[8,16,18,24]tetraen]-15′-one 13′,13′-dioxide] | 1.36 nM | – | – | IC50 [2, 8]: 2710 nM |
| CO[C@@]1(CCN2CCN3CCOC[C@@H]3C2)/C=C/C[C@H](C)[C@@H](C)S(=O)(=O)NC(=O)c2ccc3c(c2)N(C[C@@H]2CC[C@H]21)C[C@@]1(CCCc2cc(Cl)ccc21)CO3 [Example 100429, (1S,3′R,6′R,7′S,8′E,11′S,12′R)-6-chloro-7′-(2-((9aS)-hexahydropyrazino[2,1-c][1,4]oxazin-8(1H)-yl)ethyl)-7′-methoxy-11′,12′-dimethyl-3,4-dihydro-2H,15′H-spiro[naphthalene-1,22′-[20]oxa[13]thia[1,14]diazatetracyclo [14.7.2.0~3,6~.0~19,24~]pentacosa[8,16,18,24]tetraen]-15′-one 13′,13′-dioxide] | 0.176 nM | 1420 nM | – | – |
| C[C@@H]1[C@@H](C)C/C=C/[C@@](O)([C@@H](C)C(=O)N(C)C)[C@@H]2CC[C@H]2CN2C[C@@]3(CCCc4cc(Cl)ccc43)COc3ccc(cc32)C(=O)NS1(=O)=O (single isomer, unassigned) [Example 100124] | 0.323 nM | – | – | IC50 [2, 8]: 270 nM |
| CC[C@@H]1CC/C=C/[C@@](OC)(C2SCCCS2)[C@@H]2CC[C@H]2CN2C[C@@]3(CCCc4cc(Cl)ccc43)COc3ccc(cc32)C(=O)NS1(=O)=O (single isomer, unassigned) [Example 100579] | 0.214 nM | 757 nM | – | – |
| C[C@@H]1[C@@H](C)C/C=C/[C@@](O)(CC(=O)N(C)CCN(C)C)[C@@H]2CC[C@H]2CN2C[C@@]3(CCCc4cc(Cl)ccc43)COc3ccc(cc32)C(=O)NS1(=O)=O [Example 100282, 2-((1S,3′R,6′R,7′S,8′E,11′S,12′R)-6-chloro-7′-hydroxy-11′,12′-dimethyl-13′,13′-dioxido-15′-oxo-3,4-dihydro-2H-spiro[naphthalene-1,22′-[20]oxa[13]thia[1,14]diazatetracyclo [14.7.2.0~3,6~.0~19,24~]pentacosa[8,16,18,24]tetraen]-7′-yl)-N-(2-(dimethylamino)ethyl)-N-methylacetamide] | 0.268 nM | – | – | IC50 [2, 8]: 1280 nM |
